Laboratory results reported in PubChem BioAssay AID1259407 (Chemical Carcinogenesis Research Information System (CCRIS), 2018).
Active and inactive are the calls of the source. The rule behind the calls is not given here.

System: CCRIS mutagenicity, Ames/micronucleus/aberration tests
Test: CCRIS mutagenicity studies
Conditions: Test System: AMES SALMONELLA TYPHIMURIUM

For O=C1c2ccccc2-c2cc([N+](=O)[O-])ccc21, the mutagenic call (Strain/Indicator: TA98 (1,8-DNP6), Metabolic Activation: NONE, Method: PREINCUBATION) was “active; positive”, the mutagenic call (Strain/Indicator: TA98(NR), Metabolic Activation: NONE, Method: PREINCUBATION) was “active; positive” and the mutagenic call (Strain/Indicator: TA98(NR), Metabolic Activation: RAT LIVER S-9 (10%), Method: PREINCUBATION) was “active; positive”. The mutagenic call (Strain/Indicator: TA98(NR), Metabolic Activation: RAT LIVER S-9, 3-METHYLCHOLANTHRENE (10%), Method: PREINCUBATION) was “active; positive”, the mutagenic call (Strain/Indicator: TA98(NR), Metabolic Activation: RAT LIVER S-9, BETA-NAPHTHAFLAVONE (10%), Method: PREINCUBATION) was “active; positive” and the mutagenic call (Strain/Indicator: TA98(NR), Metabolic Activation: RAT LIVER S-9, PCB (10%), Method: PREINCUBATION) was “active; positive”. For the same compound, the mutagenic call (Strain/Indicator: TA98(NR), Metabolic Activation: RAT LIVER S-9, PHENOBARBITAL (10%), Method: PREINCUBATION) was “active; positive”, the mutagenic call (Strain/Indicator: TA98, Metabolic Activation: NONE, Method: PREINCUBATION) was “active; positive” and the mutagenic call (Strain/Indicator: TA98, Metabolic Activation: NONE, Method: STANDARD PLATE) was “active; positive”. The mutagenic call (Strain/Indicator: TA98, Metabolic Activation: RAT, LIVER, S-9, AROCLOR 1254, Method: STANDARD PLATE) was “active; positive”, the mutagenic call (Strain/Indicator: TA100, Metabolic Activation: NONE, Method: STANDARD PLATE) was “inactive; negative” and the mutagenic call (Strain/Indicator: TA100, Metabolic Activation: RAT, LIVER, S-9, AROCLOR 1254, Method: STANDARD PLATE) was “inactive; negative”. For the same compound, the mutagenic call (Strain/Indicator: TA7001, Metabolic Activation: NONE, Method: PREINCUBATION) was “inactive; negative”, the mutagenic call (Strain/Indicator: TA7002, Metabolic Activation: NONE, Method: PREINCUBATION) was “active; positive” and the mutagenic call (Strain/Indicator: TA7003, Metabolic Activation: NONE, Method: PREINCUBATION) was “active; positive”. For the same compound, the mutagenic call (Strain/Indicator: TA7004, Metabolic Activation: NONE, Method: PREINCUBATION) was “active; positive”, the mutagenic call (Strain/Indicator: TA7005, Metabolic Activation: NONE, Method: PREINCUBATION) was “active; positive” and the mutagenic call (Strain/Indicator: TA7006, Metabolic Activation: NONE, Method: PREINCUBATION) was “active; positive”.
